The record followed here is ChEMBL document CHEMBL5338826, “Design and Synthesis of Inhibitors of the E3 Ligase SMAD Specific E3 Ubiquitin Protein Ligase 1 as a Treatment for Lung Remodeling in Pulmonary Arterial Hypertension” (J Med Chem, 2023).

Data set [1] addresses T1, E3 ubiquitin-protein ligase SMURF1 (Homo sapiens, UniProt Q9HCE7). The data set is described as follows: Inhibition of SMURF1 (unknown origin) assessed as self-ubiquitination by TR-FRET/biochemical assay.
Data set [2] deals with T1, E3 ubiquitin-protein ligase SMURF1. As to the kind of experiment: Stabilization of SMURF1 (unknown origin) assessed as decrease in auto-ubiquitination by measuring increase in protein level by cell-based assay.
Data set [3] is described as follows: Equilibrium solubility of the compound at pH 6.8. It counts as physicochemical. The note with it: buffer.
A short description of data set [4]: Metabolic stability in rat liver microsomes assessed as half life. It counts as ADME, Microsome. On the technique in general: Microsomes from liver hold many membrane-bound enzymes, among them those of drug oxidation.
The target in data set [5] is E3 ubiquitin-protein ligase SMURF2 (Homo sapiens, UniProt Q9HAU4). As to the kind of experiment: Inhibition of SMURF2 (unknown origin) assessed as self-ubiquitination by TR-FRET/biochemical assay. (TR-FRET usually uses a lanthanide donor and a delayed reading to cut background.)
For data set [6], the species on record is Rattus norvegicus. The data set is described as follows: Anti-remodeling efficacy in hypoxia/Sugen 5416-induced pulmonary arterial hypertension rat model assessed as muscularized vessels in the pulmonary vasculature measured after 14 days relative to control. It counts as functional. The note with it: time 14 day.
Data set [7] is filed under the species Rattus norvegicus. The data set is described as follows: Anti-remodeling efficacy in hypoxia/Sugen 5416-induced pulmonary arterial hypertension rat model assessed as reversal of vessel muscularization in the pulmonary vasculature measured after 14 days relative to control. It counts as functional, organism-based. The note with it: time 14.0 day.
Data set [8] is filed under the species Rattus norvegicus. As to the kind of experiment: Anti-remodeling efficacy in hypoxia/Sugen 5416-induced pulmonary arterial hypertension rat model assessed as blocked of progression of phenotype of muscularization in the pulmonary vasculature measured after 14 days relative to control. It counts as functional, organism-based. The note with it: time 14.0 day.

A short description of data set [9]: Plasma protein binding in rat. In kind it is ADME, cell-free. The conditions noted are these: read-out: PPB.
Data set [10] is described as follows: Oral bioavailability in rat at 3 mg/kg. It counts as ADME, organism-based. The conditions noted are these: in vivo.
A short description of data set [11]: AUClast in rat at 3 mg/kg, po. It counts as ADME, organism-based. The note with it: in vivo.
Data set [12] is described as follows: Cmax in rat at 3 mg/kg, po. Also noted: dose 3 mg/kg, route po. In kind it is ADME, organism-based. The note with it: in vivo.
The nature of data set [13]: Half life in rat at 3 mg/kg, po and 1 mg/kg, iv. In kind it is ADME, organism-based. The note with it: in vivo.
Data set [14] can be described thus: Volume of distribution at steady state in rat at 3 mg/kg, po and 1 mg/kg, iv. It counts as ADME, organism-based. The note with it: in vivo.
Data set [15] deals with Rattus norvegicus. The data set is described as follows: Anti-remodeling efficacy in hypoxia/Sugen 5416-induced pulmonary arterial hypertension rat model assessed as blocked of progression of phenotype of muscularization in the pulmonary vasculature at 3 mg/kg measured after 14 days relative to control. It counts as functional, organism-based. The conditions noted are these: time 14.0 day.

Data set [16] has as its system Rattus norvegicus. The data set is described as follows: Anti-remodeling efficacy in hypoxia/Sugen 5416-induced pulmonary arterial hypertension rat model assessed as blocked of progression of phenotype of muscularization in the pulmonary vasculature at 10 mg/kg measured after 14 days relative to control. It counts as functional, organism-based. The note with it: time 14.0 day.

Data set [17] has as its system Rattus norvegicus. The data set is described as follows: Anti-remodeling efficacy in hypoxia/Sugen 5416-induced pulmonary arterial hypertension rat model assessed as reversal of vessel muscularization in the pulmonary vasculature at 3 mg/kg measured after 14 days relative to control. It counts as functional, organism-based. The conditions noted are these: time 14.0 day.

The test system of data set [18] is Rattus norvegicus. The data set is described as follows: Anti-remodeling efficacy in hypoxia/Sugen 5416-induced pulmonary arterial hypertension rat model assessed as reversal of vessel muscularization in the pulmonary vasculature at 10 mg/kg measured after 14 days relative to control. In kind it is functional, organism-based. The note with it: time 14.0 day.
The test system of data set [19] is Rattus norvegicus. As to the kind of experiment: Anti-remodeling efficacy in hypoxia/Sugen 5416-induced pulmonary arterial hypertension rat model assessed as muscularized vessels in the pulmonary vasculature at 10 mg/kg measured after 14 days relative to control. The conditions noted are these: time 14 day. It counts as functional.
Data set [20] has as its system Rattus norvegicus. As to the kind of experiment: Anti-remodeling efficacy in hypoxia/Sugen 5416-induced pulmonary arterial hypertension rat model assessed as muscularized vessels in the pulmonary vasculature at 10 mg/kg measured till end of the study relative to control. It counts as functional.

In brackets after ≈: the same amount, converted by molar mass. Activity calls are given as the source filed them. No cut-off for these calls is given here. Bounds are passed on as bounds.

T1 sequence (Q9HCE7 whole entry): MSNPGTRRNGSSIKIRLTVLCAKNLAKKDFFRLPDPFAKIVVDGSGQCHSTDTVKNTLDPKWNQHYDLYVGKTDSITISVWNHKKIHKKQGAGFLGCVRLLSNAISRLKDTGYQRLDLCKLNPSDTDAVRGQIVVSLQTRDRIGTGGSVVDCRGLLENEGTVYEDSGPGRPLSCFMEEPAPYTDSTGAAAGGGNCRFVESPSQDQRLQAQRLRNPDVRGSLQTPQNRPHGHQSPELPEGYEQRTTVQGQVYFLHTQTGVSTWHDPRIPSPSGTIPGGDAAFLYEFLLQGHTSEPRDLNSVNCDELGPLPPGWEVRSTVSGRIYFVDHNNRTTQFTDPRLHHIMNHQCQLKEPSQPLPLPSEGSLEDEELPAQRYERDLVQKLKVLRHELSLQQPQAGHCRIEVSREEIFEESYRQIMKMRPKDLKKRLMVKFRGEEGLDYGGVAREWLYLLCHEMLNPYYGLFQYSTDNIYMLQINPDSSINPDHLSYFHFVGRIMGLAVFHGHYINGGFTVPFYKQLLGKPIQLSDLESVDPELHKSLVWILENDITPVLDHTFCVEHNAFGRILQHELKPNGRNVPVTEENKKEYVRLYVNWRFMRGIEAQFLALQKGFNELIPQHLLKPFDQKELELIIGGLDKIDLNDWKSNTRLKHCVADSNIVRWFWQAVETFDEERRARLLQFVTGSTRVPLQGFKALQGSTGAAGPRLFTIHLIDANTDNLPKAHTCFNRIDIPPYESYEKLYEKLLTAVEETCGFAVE
Chain of E3 ubiquitin-protein ligase SMURF2 (Q9HAU4 whole entry): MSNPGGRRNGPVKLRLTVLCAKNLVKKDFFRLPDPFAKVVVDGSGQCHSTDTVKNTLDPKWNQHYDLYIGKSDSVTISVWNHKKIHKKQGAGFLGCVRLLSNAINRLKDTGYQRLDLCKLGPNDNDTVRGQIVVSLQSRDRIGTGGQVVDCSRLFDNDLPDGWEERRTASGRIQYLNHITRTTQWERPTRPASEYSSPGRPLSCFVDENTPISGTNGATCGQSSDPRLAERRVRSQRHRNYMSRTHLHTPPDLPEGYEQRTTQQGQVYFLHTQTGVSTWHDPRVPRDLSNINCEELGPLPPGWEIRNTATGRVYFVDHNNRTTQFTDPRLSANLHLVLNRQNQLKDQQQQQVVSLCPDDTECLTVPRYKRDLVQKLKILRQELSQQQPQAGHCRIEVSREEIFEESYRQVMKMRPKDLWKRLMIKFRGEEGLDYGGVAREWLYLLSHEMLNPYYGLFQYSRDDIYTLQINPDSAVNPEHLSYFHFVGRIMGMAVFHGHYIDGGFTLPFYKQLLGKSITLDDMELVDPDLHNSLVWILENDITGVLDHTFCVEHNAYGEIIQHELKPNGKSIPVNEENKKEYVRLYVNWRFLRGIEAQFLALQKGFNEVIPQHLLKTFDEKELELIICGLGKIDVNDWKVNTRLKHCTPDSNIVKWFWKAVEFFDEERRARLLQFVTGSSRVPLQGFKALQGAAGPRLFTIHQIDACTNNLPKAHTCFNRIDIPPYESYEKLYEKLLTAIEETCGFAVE

One may read the IC50 as the concentration at which inhibition is half-maximal. Broadly, the EC50 is the midpoint of the concentration-response curve. For `COc1ccc2c(c1)CCCc1c(C(=O)Nc3c(C)n(C)n(-c4ccccc4F)c3=O)noc1-2`, in [1], the IC50 was found to be 200 nM. Further, in [2], the EC50 stood at 600 nM.

By thermodynamic solubility is commonly meant the concentration in solution at equilibrium with solid. In general, half-life refers to the time in which the quantity being followed falls by half. `Cc1c(C(=O)Nc2c(C)n(C)n(-c3ccccc3F)c2=O)noc1-c1ccc(Cl)cc1`: the IC50 in [1] came out at 180 nM. Moreover, the EC50 in data set [2] is 580 nM. The thermodynamic solubility in data set [3] turned out to be 140 µM (≈ 61.7 µg/mL). For the same molecule, the half-life in data set [4] came to 70.5 min.

For `COc1ccc2c(c1)CCCc1c(C(=O)Nc3c(C)n(C)n(-c4ccccc4)c3=O)noc1-2`, the IC50 in data set [1] was 400 nM. Besides, the EC50 in data set [2] is 1100 nM.

Take `COc1ccc(-c2cc(C(=O)Nc3c(C)n(C)n(-c4ccccc4)c3=O)no2)cc1`: the IC50 in data set [1] was > 10000 nM. In addition, the EC50 in data set [2] was > 22000 nM.

Consider `COc1ccc2c(c1)CCc1c(C(=O)Nc3c(C)n(C)n(-c4ccccc4)c3=O)noc1-2`, for which the IC50 was 3000 nM in [1] and > 10000 nM in [5]. For the same molecule, in data set [2], the EC50 worked out at 4660 nM.

`COc1cc2ccc3c(C(=O)Nc4c(C)n(C)n(-c5ccccc5)c4=O)noc3c2cc1OC`: the IC50 in data set [1] was > 10000 nM.

On to `NC(=O)c1ccc(-c2nc(-c3ccccn3)c(-c3ccc4c(c3)OCO4)[nH]2)cc1` [SB-431542], for which, in data set [6], the Activity is on record as 15%. The result in data set [7] was inactive. The outcome in data set [8] was Active.

As a reminder, the bioavailability is the share of a dose that reaches the circulation, judged against a reference dose that is usually intravenous. Higher therefore signals much systemic uptake. Usually Cmax stands for the maximum level reached in the sampled fluid or tissue. Take `Cc1c(C(=O)Nc2c(C)n(C)n(-c3ccccc3F)c2=O)noc1-c1ccc(C2CC2)cc1Cl`: in data set [1], the IC50 came to 11 nM. Further, in data set [2], the EC50 came to 230 nM. Also, the half-life is 18.9 min in data set [4] and 114 min in [13]. Besides, in [9], the fraction unbound is < 0.01. This molecule also yielded a bioavailability in [10] of 97%. Further, in data set [11], the AUClast was determined as 11.6 µM·h. Further, in [12], the maximum concentration (Cmax) was 1080 nM. The molecule further had a Vdss in data set [14] of 1.5 L/kg. Besides, the outcome in data set [15], in data set [16], in [17] and in data set [18] was Active.

As for `Cc1c(C(=O)Nc2c(C)n(C)n(-c3ccccc3F)c2=O)noc1-c1cc(Cl)ccc1Cl`, the IC50 in data set [1] was 280 nM. Besides, the EC50 in data set [2] was found to be 2500 nM.

With `COc1ccc(-c2onc(C(=O)Nc3c(C)n(C)n(-c4ccccc4F)c3=O)c2C)cc1`, the IC50 in data set [1] came out at 1000 nM. Besides, the EC50 in [2] was 1600 nM. Also, the solubility (thermodynamic) in data set [3] came out at 22 µM (≈ 9.6 µg/mL). Moreover, the half-life in data set [4] is 15.8 min.

In the case of `Cc1c(C(=O)Nc2c(C)n(C)n(C3CCCCC3)c2=O)nnn1-c1ccc(C2CC2)cc1Cl`, in [2], the 50% effective concentration (EC50) was found to be 316 nM. For the same molecule, the solubility (thermodynamic) in data set [3] was determined as 190 µM (≈ 89.1 µg/mL). The half-inhibitory concentration (IC50) in data set [5] is > 20000 nM. In data set [9], the fraction unbound is < 0.01. The same molecule showed a bioavailability in data set [10] of 82%. The AUClast in [11] was found to be 7.38 µM·h. In data set [12], this molecule returned a Cmax of 2010 nM. The molecule also gave a half-life in [13] of 474 min. In addition, in data set [14], the Vdss worked out at 2.3 L/kg. The Activity in data set [19] worked out at 10%; in [20], 18%.

`Cc1c(C(=O)Nc2c(C)n(C)n(-c3ccccc3F)c2=O)noc1-c1ccc(Cl)cc1Cl`: the IC50 in data set [1] is 29 nM. Further, the EC50 in data set [2] was determined as 410 nM. The solubility (thermodynamic) in [3] was determined as 13 µM (≈ 6.18 µg/mL). Further, the half-life in data set [4] was determined as 16.7 min.

As for `Cc1c(C(=O)O)noc1-c1ccc(C2CC2)cc1Cl`, in data set [2], the EC50 was 40 nM. Besides, the thermodynamic solubility in [3] came out at 24 µM (≈ 6.66 µg/mL). In [5], the IC50 worked out at 2900 nM. For the same molecule, the fraction unbound in data set [9] is < 0.01. This molecule also displayed a bioavailability in data set [10] of 67%. In [11], the AUClast came out at 2.78 µM·h. The molecule also showed a Cmax in data set [12] of 541 nM. Besides, in [13], the half-life was 96 min. The Vdss in data set [14] was 1.7 L/kg.

As to `Cc1c(C(=O)Nc2c(C)n(C)n(-c3ccccc3F)c2=O)noc1-c1ccc(Cl)cc1F`, the IC50 in [1] stood at 700 nM. Besides, the EC50 in data set [2] came to 1100 nM. For the same molecule, in data set [3], the solubility (thermodynamic) turned out to be 530 µM (≈ 243 µg/mL). For the same molecule, the half-life in [4] was found to be 30.7 min.

As for `COc1ccc(-c2onc(C(=O)Nc3c(C)n(C)n(-c4ccccc4F)c3=O)c2C)c(C)c1`, the IC50 in data set [1] was determined as 180 nM. The concentration for a half-maximal effect (EC50) in data set [2] was found to be 250 nM. In data set [3], the thermodynamic solubility came to 280 µM (≈ 126 µg/mL). In addition, the half-life in data set [4] worked out at 45.2 min.
